Key:
Test in all cases: IC50 for competition of protein binding to Kinobeads
Conditions in all cases: assay detail: Kinobeads competition in P. falciparum blood-stage lysate
UniProt C6KST5 = molecular target: UniProt C6KST5
UniProt Q8I3Y8 = molecular target: UniProt Q8I3Y8
UniProt Q8II60 = molecular target: UniProt Q8II60
UniProt Q8IKF0 = molecular target: UniProt Q8IKF0
UniProt Q8ILV2 = molecular target: UniProt Q8ILV2
UniProt P61076 = molecular target: UniProt P61076
UniProt Q8IJR8 = molecular target: UniProt Q8IJR8
UniProt Q8I5H4 = molecular target: UniProt Q8I5H4
UniProt Q8IIJ6 = molecular target: UniProt Q8IIJ6
UniProt Q8ILX1 = molecular target: UniProt Q8ILX1
UniProt Q8IKH3 = molecular target: UniProt Q8IKH3
UniProt Q8I1N8 = molecular target: UniProt Q8I1N8
UniProt Q7KQL8 = molecular target: UniProt Q7KQL8
UniProt Q8I3W0 = molecular target: UniProt Q8I3W0
UniProt Q8I206 = molecular target: UniProt Q8I206
UniProt Q8IEE5 = molecular target: UniProt Q8IEE5
UniProt Q8I3T4 = molecular target: UniProt Q8I3T4
UniProt C0H564 = molecular target: UniProt C0H564
UniProt O97247 = molecular target: UniProt O97247
UniProt Q8IM16 = molecular target: UniProt Q8IM16
UniProt Q8IJW4 = molecular target: UniProt Q8IJW4
UniProt O77312 = molecular target: UniProt O77312
UniProt Q8IM23 = molecular target: UniProt Q8IM23
UniProt Q8I3U9 = molecular target: UniProt Q8I3U9
UniProt Q8IIH7 = molecular target: UniProt Q8IIH7
UniProt Q8IDR5 = molecular target: UniProt Q8IDR5
UniProt Q8I6S4 = molecular target: UniProt Q8I6S4
UniProt Q8I2P2 = molecular target: UniProt Q8I2P2
UniProt Q8IE22 = molecular target: UniProt Q8IE22
UniProt Q8IBQ9 = molecular target: UniProt Q8IBQ9
UniProt Q8IHR8 = molecular target: UniProt Q8IHR8
UniProt Q8IID5 = molecular target: UniProt Q8IID5
UniProt Q8IL53 = molecular target: UniProt Q8IL53
UniProt Q8ILZ3 = molecular target: UniProt Q8ILZ3
UniProt C6KTE1 = molecular target: UniProt C6KTE1
UniProt Q8ILB6 = molecular target: UniProt Q8ILB6
UniProt Q8IAK9 = molecular target: UniProt Q8IAK9
UniProt Q8I608 = molecular target: UniProt Q8I608
UniProt C6KT34 = molecular target: UniProt C6KT34
UniProt O77388 = molecular target: UniProt O77388
UniProt Q6ZMA7 = molecular target: UniProt Q6ZMA7
UniProt Q8I526 = molecular target: UniProt Q8I526
UniProt Q8IEF5 = molecular target: UniProt Q8IEF5
UniProt Q8ILY8 = molecular target: UniProt Q8ILY8
UniProt Q8IEU2 = molecular target: UniProt Q8IEU2
UniProt Q8I5M2 = molecular target: UniProt Q8I5M2
UniProt Q8I328 = molecular target: UniProt Q8I328
Q8IEK1 = Q8IEK1 (UniProt O96935)
UniProt Q8I0U8 = molecular target: UniProt Q8I0U8
UniProt Q8IIR0 = molecular target: UniProt Q8IIR0
UniProt Q6ZMA8 = molecular target: UniProt Q6ZMA8

Measured: IC50
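Also: native unpurified kinases from lysate captured on beads bearing immobilized kinase inhibitors, with bead-bound kinases quantified by mass spectrometry across compound doses.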

UniProt Q8I3Y8, sequence (Q8I3Y8 whole entry): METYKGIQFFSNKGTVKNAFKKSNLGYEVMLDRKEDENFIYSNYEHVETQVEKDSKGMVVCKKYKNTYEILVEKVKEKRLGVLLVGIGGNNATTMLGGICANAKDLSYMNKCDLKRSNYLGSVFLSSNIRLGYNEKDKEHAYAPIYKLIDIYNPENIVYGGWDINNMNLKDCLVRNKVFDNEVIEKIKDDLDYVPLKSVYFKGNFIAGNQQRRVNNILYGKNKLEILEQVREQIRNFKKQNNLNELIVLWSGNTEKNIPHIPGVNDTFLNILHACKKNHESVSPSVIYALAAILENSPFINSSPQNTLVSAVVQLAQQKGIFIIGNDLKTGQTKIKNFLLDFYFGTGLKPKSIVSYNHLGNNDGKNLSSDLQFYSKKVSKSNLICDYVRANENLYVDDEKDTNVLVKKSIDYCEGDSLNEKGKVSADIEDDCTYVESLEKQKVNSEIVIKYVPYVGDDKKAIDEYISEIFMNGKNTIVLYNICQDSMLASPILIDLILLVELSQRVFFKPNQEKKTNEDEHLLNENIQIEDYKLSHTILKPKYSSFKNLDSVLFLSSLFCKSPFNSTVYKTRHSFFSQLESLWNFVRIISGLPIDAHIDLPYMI
Q8IEK1, sequence (O96935 whole entry, one chain of several): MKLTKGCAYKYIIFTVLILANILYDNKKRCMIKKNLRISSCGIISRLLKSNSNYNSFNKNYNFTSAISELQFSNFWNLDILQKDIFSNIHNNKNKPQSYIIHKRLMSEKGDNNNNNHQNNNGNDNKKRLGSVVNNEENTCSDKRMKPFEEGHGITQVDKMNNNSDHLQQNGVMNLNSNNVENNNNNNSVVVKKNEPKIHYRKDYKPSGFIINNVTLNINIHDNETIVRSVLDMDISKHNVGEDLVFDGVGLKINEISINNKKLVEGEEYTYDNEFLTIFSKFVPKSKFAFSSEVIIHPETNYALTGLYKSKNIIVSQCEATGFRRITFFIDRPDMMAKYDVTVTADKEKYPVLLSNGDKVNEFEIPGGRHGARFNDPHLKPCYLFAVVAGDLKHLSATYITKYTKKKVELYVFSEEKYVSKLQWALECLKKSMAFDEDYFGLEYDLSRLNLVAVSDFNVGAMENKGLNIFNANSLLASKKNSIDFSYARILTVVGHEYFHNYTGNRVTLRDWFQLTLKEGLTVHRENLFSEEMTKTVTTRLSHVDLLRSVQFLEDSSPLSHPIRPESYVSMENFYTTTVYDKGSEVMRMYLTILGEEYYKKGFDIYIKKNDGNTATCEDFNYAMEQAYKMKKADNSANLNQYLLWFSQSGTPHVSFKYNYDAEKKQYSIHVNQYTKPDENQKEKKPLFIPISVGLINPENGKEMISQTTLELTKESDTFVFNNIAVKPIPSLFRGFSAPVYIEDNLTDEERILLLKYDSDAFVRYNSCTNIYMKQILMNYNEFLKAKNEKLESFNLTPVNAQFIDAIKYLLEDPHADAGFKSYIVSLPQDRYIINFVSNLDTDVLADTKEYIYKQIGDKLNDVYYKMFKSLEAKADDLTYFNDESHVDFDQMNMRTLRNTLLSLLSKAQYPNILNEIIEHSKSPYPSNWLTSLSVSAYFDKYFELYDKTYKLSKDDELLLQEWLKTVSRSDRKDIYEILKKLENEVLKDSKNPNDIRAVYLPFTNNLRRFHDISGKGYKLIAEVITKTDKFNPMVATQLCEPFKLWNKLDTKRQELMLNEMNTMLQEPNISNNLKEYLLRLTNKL
UniProt Q7KQL8, sequence (Q7KQL8 whole entry): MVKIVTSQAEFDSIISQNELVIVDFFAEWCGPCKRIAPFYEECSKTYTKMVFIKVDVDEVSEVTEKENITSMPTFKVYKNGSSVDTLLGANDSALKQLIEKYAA
UniProt Q8I0U8, sequence (Q8I0U8 whole entry): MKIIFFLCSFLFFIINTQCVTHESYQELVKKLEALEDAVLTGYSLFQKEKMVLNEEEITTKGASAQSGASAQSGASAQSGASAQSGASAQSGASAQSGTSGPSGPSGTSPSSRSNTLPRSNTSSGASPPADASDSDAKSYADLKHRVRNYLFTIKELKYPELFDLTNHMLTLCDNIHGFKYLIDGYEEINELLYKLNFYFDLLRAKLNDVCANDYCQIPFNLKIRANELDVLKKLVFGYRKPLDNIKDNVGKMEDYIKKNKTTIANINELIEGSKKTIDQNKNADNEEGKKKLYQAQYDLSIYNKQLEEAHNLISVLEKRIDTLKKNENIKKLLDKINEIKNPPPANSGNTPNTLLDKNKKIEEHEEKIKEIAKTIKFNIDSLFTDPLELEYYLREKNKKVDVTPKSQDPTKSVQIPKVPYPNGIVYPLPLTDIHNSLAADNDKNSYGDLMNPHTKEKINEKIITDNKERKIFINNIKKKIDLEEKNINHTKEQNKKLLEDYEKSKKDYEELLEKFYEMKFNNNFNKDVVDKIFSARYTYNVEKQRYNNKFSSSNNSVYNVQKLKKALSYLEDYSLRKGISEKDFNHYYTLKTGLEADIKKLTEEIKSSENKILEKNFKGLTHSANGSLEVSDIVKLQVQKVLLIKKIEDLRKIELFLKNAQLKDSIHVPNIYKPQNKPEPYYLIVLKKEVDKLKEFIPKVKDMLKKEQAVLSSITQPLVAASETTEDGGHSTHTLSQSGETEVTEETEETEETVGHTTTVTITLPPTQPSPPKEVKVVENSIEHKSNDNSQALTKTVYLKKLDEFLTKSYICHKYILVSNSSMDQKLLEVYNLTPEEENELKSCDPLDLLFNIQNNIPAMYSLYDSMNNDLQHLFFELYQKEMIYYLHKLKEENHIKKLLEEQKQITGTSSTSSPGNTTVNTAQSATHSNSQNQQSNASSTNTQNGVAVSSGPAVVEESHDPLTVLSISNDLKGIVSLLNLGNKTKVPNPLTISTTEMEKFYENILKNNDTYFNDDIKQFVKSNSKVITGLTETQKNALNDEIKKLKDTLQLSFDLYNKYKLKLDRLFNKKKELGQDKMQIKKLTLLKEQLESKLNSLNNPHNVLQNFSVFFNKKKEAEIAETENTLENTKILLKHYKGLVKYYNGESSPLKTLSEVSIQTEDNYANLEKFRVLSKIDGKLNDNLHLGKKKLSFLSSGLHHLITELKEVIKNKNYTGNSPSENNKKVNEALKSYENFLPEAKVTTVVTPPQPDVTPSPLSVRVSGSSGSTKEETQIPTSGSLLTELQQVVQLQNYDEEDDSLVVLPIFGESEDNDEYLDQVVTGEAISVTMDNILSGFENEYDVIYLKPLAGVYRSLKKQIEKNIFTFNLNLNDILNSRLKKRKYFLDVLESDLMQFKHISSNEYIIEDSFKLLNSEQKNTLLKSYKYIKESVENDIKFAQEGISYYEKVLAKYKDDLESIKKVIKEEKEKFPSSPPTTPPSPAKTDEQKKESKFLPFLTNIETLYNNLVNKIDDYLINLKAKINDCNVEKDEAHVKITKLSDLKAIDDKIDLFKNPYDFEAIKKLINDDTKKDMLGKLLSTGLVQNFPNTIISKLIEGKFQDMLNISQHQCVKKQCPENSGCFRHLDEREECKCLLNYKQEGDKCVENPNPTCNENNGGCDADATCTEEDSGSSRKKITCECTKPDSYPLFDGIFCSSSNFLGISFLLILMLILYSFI
UniProt Q8IIJ6, sequence (Q8IIJ6 whole entry): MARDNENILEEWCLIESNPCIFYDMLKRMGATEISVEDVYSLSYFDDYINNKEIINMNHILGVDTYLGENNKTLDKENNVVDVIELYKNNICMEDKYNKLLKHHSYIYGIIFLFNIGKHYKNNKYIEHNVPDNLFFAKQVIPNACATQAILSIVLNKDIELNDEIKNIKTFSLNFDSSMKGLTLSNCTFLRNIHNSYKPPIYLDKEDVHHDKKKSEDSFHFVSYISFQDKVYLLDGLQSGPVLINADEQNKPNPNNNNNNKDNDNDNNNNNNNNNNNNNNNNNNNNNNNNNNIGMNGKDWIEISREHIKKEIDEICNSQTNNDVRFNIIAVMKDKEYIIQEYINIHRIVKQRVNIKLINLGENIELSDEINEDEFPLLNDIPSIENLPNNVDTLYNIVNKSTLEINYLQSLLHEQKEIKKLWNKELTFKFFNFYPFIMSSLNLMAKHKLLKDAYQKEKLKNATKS
UniProt P61076, sequence (P61076 whole entry): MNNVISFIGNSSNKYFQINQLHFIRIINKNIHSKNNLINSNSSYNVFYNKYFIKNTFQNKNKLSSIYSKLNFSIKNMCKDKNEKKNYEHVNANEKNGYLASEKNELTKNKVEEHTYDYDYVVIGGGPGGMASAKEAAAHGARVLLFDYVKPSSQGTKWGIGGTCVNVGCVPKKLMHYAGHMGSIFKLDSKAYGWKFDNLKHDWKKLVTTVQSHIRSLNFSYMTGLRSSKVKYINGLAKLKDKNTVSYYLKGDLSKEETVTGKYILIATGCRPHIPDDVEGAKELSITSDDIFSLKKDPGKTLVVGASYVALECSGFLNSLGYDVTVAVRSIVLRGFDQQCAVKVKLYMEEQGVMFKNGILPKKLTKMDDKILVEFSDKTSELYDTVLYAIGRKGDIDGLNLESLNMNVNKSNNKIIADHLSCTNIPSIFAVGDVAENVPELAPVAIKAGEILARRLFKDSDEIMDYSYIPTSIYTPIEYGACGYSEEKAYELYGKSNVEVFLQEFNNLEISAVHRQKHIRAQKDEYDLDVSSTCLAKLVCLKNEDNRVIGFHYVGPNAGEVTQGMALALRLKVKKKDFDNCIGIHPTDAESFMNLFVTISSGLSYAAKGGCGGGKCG
UniProt Q8IM16, sequence (Q8IM16 whole entry): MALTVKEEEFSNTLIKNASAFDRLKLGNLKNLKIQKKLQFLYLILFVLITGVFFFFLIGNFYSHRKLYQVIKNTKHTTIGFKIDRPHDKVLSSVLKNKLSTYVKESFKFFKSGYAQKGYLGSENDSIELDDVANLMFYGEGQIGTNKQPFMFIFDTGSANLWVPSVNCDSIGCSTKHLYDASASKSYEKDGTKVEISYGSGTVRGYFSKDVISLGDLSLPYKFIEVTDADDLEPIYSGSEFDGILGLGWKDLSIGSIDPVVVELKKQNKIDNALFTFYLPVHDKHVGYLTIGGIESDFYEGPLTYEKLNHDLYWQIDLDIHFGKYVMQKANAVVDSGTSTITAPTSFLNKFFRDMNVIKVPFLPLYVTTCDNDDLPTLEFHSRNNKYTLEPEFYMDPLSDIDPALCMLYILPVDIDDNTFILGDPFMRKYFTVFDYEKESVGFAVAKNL

O=c1[nH]c2ccc(Cl)cc2c(NC2CN3CCC2CC3)c1-c1nc2ccccc2[nH]1 (stereo unspecified) [CHIR-124]
0.649 µM: UniProt Q8IJR8
> 20 µM: all other assays above

From the supplement of paper PMC13386468
